What was measured:
[1] = tested on: pCREB in mouse cortical neurons (E17, DIV6); experiment: Nuclear pCREB in midi-GAGR-treated neurons after signaling inhibitors; type: cell-based; conditions: inhibitor 6 h (SU5402 4 μM, staurosporine 3 nM, U0126 10 μM, LY294002 20 μM, KN-62 10 μM, PF-573228 1 μM), then 1 μM midi-GAGR 48 h
Protocol: (§1) To analyze the effect of polysaccharides on neurite outgrowth, primary mouse cortical neurons were treated with vehicle (H2O) or 1 μM of dextran, alginate, or midi-GAGR, 0.01 μM of HA-GAGR, or 0.1 μM of LA-GAGR for 2 days prior to immunocytochemistry using anti-α-tubulin antibody and secondary Alexa488nm antibody. An etched grid coverslip containing 200 numbered boxes was used to select neurons objectively for image acquisition and analysis. A total of 24 boxes were randomly selected per treatment group. All the neurons having total neurite length longer than 4 times of the diameter of neuron cell body were chosen for image analysis. The total length of the neurites of each neuron was measured using Metamorph and used to calculate average total neurite length. To examine the effect of polysaccharides on the phosphorylation (activation) of nuclear CREB, neurons were stained with anti-pCREB antibody (Abcam & Santa Cruz biotechnologies, 2nd antibody with Alexa568nm), anti-α-tubulin antibody (Sigma, 2nd antibody with Alexa488nm), and DAPI (Sigma) after two-day incubation with vehicle (H2O) or 1 μM of dextran, alginate, or midi-GAGR, 0.01 μM of HA-GAGR, or 0.1 μM of LA-GAGR. […] The images of neurons on coverslips were taken by confocal microscopy at the same gain (850), offset (˜0.01) and exposure time (2 sec). The intensity of the staining of nuclear pCREB was measured using Metamorph and used to calculate average intensity. In addition, the phosphorylation of CREB in the cytosols of mouse cortical neurons treated with polysaccharides were detected by immunoblotting. Primary mouse neurons were dissected from 16 mouse embryos (E17) and plated in the wells of 6-well plates (1×10^6 cells/well), differentiated for 6 days, and treated with polysaccharides for 48 h. Then, neurons were harvested and lysed in 1% Igepal CA-630 (Sigma)-containing PMEE buffer plus protease and phosphatase inhibitor cocktails (Sigma) for protein extraction. Extracted proteins were separated in 4-12% NuPAGE Bis-Tris protein gels (Life Technologies) and transferred to nitrocellulose membrane (GE Healthcare Life Science, Pittsburgh, Pa.) using a semidry blotter (Hoefer, Inc. San Francisco, Calif.). The protein bands on blots recognized by anti-pCREB (Santa Cruz Biotechnologies) and anti-CREB antibodies were detected on Amersham Hyperfilm™ ECL films (GE Healthcare Life Science) using SuperSignal® West Pico Chemiluminescent Substrate (Thermo Scientific).
Pharmacological agents were used to inhibit signaling molecules downstream of FGFR1 that mediate CREB phosphorylation. […] PF-573228 (PF, 1 μM) that inhibits FAK which sits at the bottleneck of the signaling pathway downstream of NCAM180 was also included to examine whether NCAM180 is involved in midi-GAGR-mediated CREB phosphorylation or not. […]

[2] = tested on: Rat cortical neurons (E17, DIV6); experiment: LIVE/DEAD assay with FGFR1 inhibitor SU5402 and 4HNE; type: cell-based
Source text: The protective effect of polysaccharides on primary cortical neurons from 4HNE, H2O2, and Aβ42 peptide (Sigma) was examined using LIVE/DEAD® Viability/Cytotoxicity Assay Kit (Life Technologies). Female pregnant mice (BALB/C, E17, Charles River Laboratories International, Inc.) or female pregnant SD rats (E17, bred in house) were anesthetized and dissected to obtain 8-9 embryos per animal. Cortical neurons were isolated from embryonic brains and differentiated on poly-L-lysine-coated coverslips in B27/neurobasal medium. For drug treatment before free radical treatment, mouse cortical neurons (5 days in vitro [DIV5.]) were treated with vehicle (H2O), 1 μM of 5 kD dextran (Sigma), alginate (Sigma), midi-GAGR, 0.01 μM of high acyl gellan gum (HA-GAGR, CPKelco Co.), or 0.1 μM of LA-GAGR for 24 h and then treated with 10 μM 4HNE or 50 μM H2O2 for 24 h, or 2 μM A[…]42 peptide for 48 h prior to viability/cytotoxicity assay. For drug co-treatment with free radicals, rat cortical neurons (DIV5) were treated with 1 μM of dextran, alginate, or midi-GAGR, 0.01 μM of HA-GAGR, or 0.1 μM of LA-GAGR along with either 10 μM 4HNE (24 h) or 2 μM Aβ42 peptide (48 h). […]

[3] = tested on: primary mouse cortical neurons (E17, DIV4); experiment: Neurite outgrowth in primary mouse cortical neurons; type: cell-based; conditions: 2 days; 1 μM midi-GAGR, dextran, alginate; 0.1 μM LA-GAGR; 0.01 μM HA-GAGR
Protocol: as §1, with “Then, neurons were harvested and lysed in 1% Igepal CA-630 (Sigma)-containing PMEE buffer plus protease and phosphatase inhibitor cocktails (Sigma) for protein extraction. Extracted proteins were separated in 4-12% NuPAGE Bis-Tris protein gels (Life Technologies) and transferred to nitrocellulose membrane (GE Healthcare Life Science, Pittsburgh, Pa.) using a semidry blotter (Hoefer, Inc. San Francisco, Calif.).” left out

[4] = tested on: Mouse cortical neurons (E17, DIV5); experiment: LIVE/DEAD assay, pre-treated mouse cortical neurons with 4HNE, H2O2 or Aβ42; type: cell-based; conditions: pre-treatment 24 h (1 μM midi-GAGR, dextran, alginate; 0.1 μM LA-GAGR; 0.01 μM HA-GAGR); for neuron death after Aβ42 peptide: 2 μM Aβ42 48 h, vehicle about 30%; for neuron death after 4HNE: 10 μM 4HNE 24 h, vehicle ~26%; for neuron death after H2O2: 50 μM H2O2 24 h, vehicle ~25%
Source text: The protective effect of polysaccharides on primary cortical neurons from 4HNE, H2O2, and Aβ42 peptide (Sigma) was examined using LIVE/DEAD® Viability/Cytotoxicity Assay Kit (Life Technologies). Female pregnant mice (BALB/C, E17, Charles River Laboratories International, Inc.) or female pregnant SD rats (E17, bred in house) were anesthetized and dissected to obtain 8-9 embryos per animal. Cortical neurons were isolated from embryonic brains and differentiated on poly-L-lysine-coated coverslips in B27/neurobasal medium. For drug treatment before free radical treatment, mouse cortical neurons (5 days in vitro [DIV5.]) were treated with vehicle (H2O), 1 μM of 5 kD dextran (Sigma), alginate (Sigma), midi-GAGR, 0.01 μM of high acyl gellan gum (HA-GAGR, CPKelco Co.), or 0.1 μM of LA-GAGR for 24 h and then treated with 10 μM 4HNE or 50 μM H2O2 for 24 h, or 2 μM A[…]42 peptide for 48 h prior to viability/cytotoxicity assay. For drug co-treatment with free radicals, rat cortical neurons (DIV5) were treated with 1 μM of dextran, alginate, or midi-GAGR, 0.01 μM of HA-GAGR, or 0.1 μM of LA-GAGR along with either 10 μM 4HNE (24 h) or 2 μM Aβ42 peptide (48 h). To examine the extent to which midi-GAGR-mediated neuroprotection depends on FGFR1, rat cortical neurons (E17, DIV5) were pre-treated with 4 μM SU5402 (Sigma) for 6 h and treated with 10 μM 4HNE and either vehicle or 1 μM midi-GAGR for 24 h prior to cell viability/cytotoxicity assay. As controls, neurons were treated with SU5402, midi-GAGR, 4HNE, 4HNE plus midi-GAGR, or SU5402 plus midi-GAGR.
For cell viability/cytotoxicity measurement, neurons on glass coverslips were incubated in 1×PBS containing 2 μM calcein AM (live cells: green) and 4 μM ethidium homodimer-1 (dead cells: red) for 10 min at 37° C. Immediately thereafter, neurons were imaged by 10×objective using a fluorescence Olympus IX71 microscope (Olympus America Inc., Center Valley, Pa.) and, for the acquisition of high-quality images, using TCS SP5 multi-photon laser scanning confocal microscope.
Midi-GAGR attenuated neurite atrophy caused by free reactive radicals. It is now shown herein that midi-GAGR protect neurons from the death caused by free radical insults. The extent to which midi-GAGR protects the primary culture of rodent cortical neurons from 4HNE and H2O2 was determined. In addition to the radicals, amyloid β peptide (Aβ42) was also tested. Aβ42 peptide is a major causative factor that causes oxidative stress and neuron death. Mouse cortical neurons (E17, DIV5) were treated with 10 μM 4HNE (24 h), 50 μM H2O2 (24 h), or 2 μM Aβ42 peptide (48 h) after the treatment of the neurons with vehicle (H2O), midi-GAGR (1 μM), dextran (1 μM), alginate (1 μM), LA-GAGR (0.1 μM), or HA-GAGR (0.01 μM) for 24 h. The concentrations of 4HNE, H2O2, and Aβ42 peptide were chosen according to their patho-physiological concentrations. The concentrations of LA-GAGR and HA-GAGR were chosen because, within the same volume, the total numbers of sugar units in the polysaccharides at the concentrations are close to that of 1 μM midi-GAGR. The viability of neurons was assessed using LIVE/DEAD® Viability/Cytotoxicity Assay Kit in which membrane-permeant calcein AM is cleaved by esterase in live cells, thus yielding green fluorescence, and membrane-impermeant ethidium homodimer-1 stains the nucleic acids of plasma membrane-compromised cells with red fluorescence. The numbers of green (live) and red (dead) neurons in each condition were counted using Metamorph. Although the intensities of green fluorescent signals in neurons treated with either free radicals or Aβ42 peptide were weak, the neurons were included in the counting. About 8-9% of vehicle-treated neurons died during the process of live/dead cell assay (FIGS. 23A-23F, FIGS. 24A-24C).

[5] = tested on: pCREB in mouse cortical neurons; experiment: pCREB immunoblotting of neuron cytosols; type: cell-based; conditions: 48 h; 1 μM midi-GAGR, dextran, alginate; 0.1 μM LA-GAGR; 0.01 μM HA-GAGR
Protocol: (§2) To analyze the effect of polysaccharides on neurite outgrowth, primary mouse cortical neurons were treated with vehicle (H2O) or 1 μM of dextran, alginate, or midi-GAGR, 0.01 μM of HA-GAGR, or 0.1 μM of LA-GAGR for 2 days prior to immunocytochemistry using anti-α-tubulin antibody and secondary Alexa488nm antibody. An etched grid coverslip containing 200 numbered boxes was used to select neurons objectively for image acquisition and analysis. A total of 24 boxes were randomly selected per treatment group. All the neurons having total neurite length longer than 4 times of the diameter of neuron cell body were chosen for image analysis. The total length of the neurites of each neuron was measured using Metamorph and used to calculate average total neurite length. […] The intensity of the staining of nuclear pCREB was measured using Metamorph and used to calculate average intensity. In addition, the phosphorylation of CREB in the cytosols of mouse cortical neurons treated with polysaccharides were detected by immunoblotting. […] The protein bands on blots recognized by anti-pCREB (Santa Cruz Biotechnologies) and anti-CREB antibodies were detected on Amersham Hyperfilm™ ECL films (GE Healthcare Life Science) using SuperSignal® West Pico Chemiluminescent Substrate (Thermo Scientific). […]

[6] = tested on: pCREB in mouse cortical neurons; experiment: Nuclear pCREB immunostaining in mouse cortical neurons (Example 4); type: cell-based; conditions: 48 h; 1 μM midi-GAGR, dextran, alginate; 0.1 μM LA-GAGR; 0.01 μM HA-GAGR
Protocol: as §2

[7] = ABTS Antioxidant Assay Kit; type: biochemical; conditions: 10 μM polysaccharide
Protocol: The antioxidant capacity of midi-GAGR was measured using ABTS Antioxidant Assay Kit (Zenbio Co.). […] This was slightly stronger than antioxidant capacity of LA-GAGR (10 μM LA-GAGR=15.4 μM trolox) (Table 2).

[8] = tested on: phosphorylated CREB in differentiated PC12 cells; experiment: Nuclear p-CREB immunostaining in PC12 cells; type: cell-based; conditions: 1 μM, 24 h
Protocol: (§3) Differentiated PC12 cells and mouse embryonic cortical neurons (E17, DIV14) were treated with mock, dextran, alginate, HA-GAGR or midi-GAGR (1 μM) for 24 h and fixed in 3.7% paraformaldehyde. The fixed cells and neurons were immunostained with antibodies against α-tubulin and phosopho-CREB (p-CREB) along with DAPI (nucleus).

[9] = tested on: Differentiated dopaminergic PC12 cells; experiment: LIVE/DEAD viability of differentiated PC12 cells exposed to 6-OHDA; type: cell-based; conditions: 1 μM for 6 h, then 30 μM 6-OHDA for 24 h
Protocol: Differentiated dopaminergic PC12 cells and primary mouse embryonic cortical neurons (E17, DIV14) were treated with mock (H2O) or 1 μM of dextran, alginate, HA-GAGR or midi-GAGR for 6 h and insulated by oxidative stressors (30 μM 6-OHDA [PC12] and 10 μM amyloid β peptide [cortical neurons]) for 24 h.

[10] = tested on: phosphorylated CREB in mouse embryonic cortical neurons; experiment: Nuclear p-CREB immunostaining in cortical neurons (Example 2); type: cell-based; conditions: 1 μM, 24 h
Protocol: as §3

Cc1c[nH]c(/C=C2\C(=O)Nc3ccccc32)c1CCC(=O)O [SU5402]
average intensity of pCREB in midi-GAGR-treated neurons after inhibitor pre-treatment [1]: significantly decreased
percent of dead cells, pre-treatment then 4HNE ([2]; SU5402 4 μM 6 h, then 10 μM 4HNE 24 h): ~80%
percent of dead cells without 4HNE ([2]; SU5402 4 μM, midi-GAGR 1 μM): did not increase

[D-Glc(β1→4)D-GlcA(β1→4)D-Glc(β1→4)L-Rha(α1→3]n [LA-GAGR]
fold change in average total neurite length compared to vehicle [3]: ~1.6 fold
neuron death after Aβ42 peptide [4]: ~10%
neuron death after 4HNE [4]: 10%
neuron death after H2O2 [4]: ~13%
levels of pCREB by immunoblotting compared to control [5]: significantly increased
average intensity of nuclear pCREB compared to vehicle [6]: ~2 fold
Antioxidant capacity, ABTS assay [7]: 15.4 μM Trolox

CS(=O)(=O)c1cccc(CNc2nc(Nc3ccc4c(c3)CCC(=O)N4)ncc2C(F)(F)F)c1 [PF-573228]
average intensity of pCREB in midi-GAGR-treated neurons after inhibitor pre-treatment [1]: did not decrease

N#CC(=C(/N)Sc1ccccc1N)/C(C#N)=C(\N)Sc1ccccc1N [U0126]
average intensity of pCREB in midi-GAGR-treated neurons after inhibitor pre-treatment [1]: significantly decreased

alginate
fold change in average total neurite length compared to vehicle [3]: did not enhance neuritogenesis
increase of the levels of nuclear p-CREB [8]: not significantly increased
neuron death after Aβ42 peptide [4]: did not decrease
neuron death after 4HNE [4]: reduced
neuron death after H2O2 [4]: did not reduce
6-OHDA-induced cell death [9]: did not
increase of the levels of nuclear p-CREB [10]: not significantly increased

CN([C@@H](Cc1ccc(OS(=O)(=O)c2cccc3cnccc23)cc1)C(=O)N1CCN(c2ccccc2)CC1)S(=O)(=O)c1cccc2cnccc12 [KN-62]
average intensity of pCREB in midi-GAGR-treated neurons after inhibitor pre-treatment [1]: decreased slightly but still statistically significantly

From US10792301B2, “Therapeutic polysaccharide midi-GAGR and related materials and methods” (priority 2015, dated 2020)
